Assay results: patent US20240099964A1, “Methods and Compositions for the Prophylactic Treatment of SARS-CoV-2 virus (COVID-19)” (MedinCell S.A., priority 2020, published 2024)

Key:
[1] = test system: DENV; details: single daily oral dose; cited from earlier work
[2] = test system: Vero-E6 cells; assay: Cytotoxicity in non-infected Vero-E6 cells (cell viability); type: cell-based; details: 0.01-5 μM ivermectin
Description: For avoiding false positives, cytotoxicity was evaluated by culturing non-infected cells in the same conditions and with the same concentrations of ivermectin. Cell viability was then determined.

[3] = test system: Zika virus (ZIKV); details: mice; cited from earlier work
[4] = test system: SARS-CoV-2 clinical isolate; details: Vero/hSLAM cells, cited from earlier work
[5] = test system: SARS-CoV-2; assay: Ivermectin effect on preventing SARS-CoV-2 infection of pretreated Vero-E6 cells (qRT-PCR); type: cell-based
Description: Assessment of Ivermectin effect on preventing SARS-CoV-2 infection Vero-E6 cells were incubated with 0.01, 0.025, 0.05, 0.1, 0.5, 1 or 5 μM concentrations of ivermectin during 2, 6, 16 or 24 hours. Then, cells were infected with SARS-CoV-2 at a multiplicity of infection (MOI) of 0.001, 0.01 or 0.1. After 2 hours of incubation in the presence of the virus, medium with the same concentration of ivermectin was added again. After 24, 48 or 72 hours, viral charge is quantified by qRT-PCR.

For ivermectin, the safety [1] is listed as “safe”, the “serum levels of viral NS1 protein” value [1] is listed as “significant reduction” and the “viremia or clinical benefit” value [1] is listed as “no change”. The cell toxicity [2] was “No cell toxicity”, the “effectiveness against Zika virus” value [3] was “not effective” and the “antiviral action in vitro” value [4] was “has antiviral action”. The “time within which a single dose controls viral replication” value ([4]; single dose) was 24 to 48 h, the “preincubation-time dependency of inhibition of viral replication” value ([5]; 72 hours post-infection, preincubation 2, 6, 16 or 24 hours) was “the longer the preincubation time with ivermectin, the higher the inhibition of viral replication” and the “viral replication (RT-qPCR)” value ([5]; cells pretreated with ivermectin at 5 μM) was “highly inhibited”.
